The target in this experiment is SARS-CoV-2 Mpro (Severe acute respiratory syndrome coronavirus 2, UniProt P0DTD1). The experiment is described as follows: SARS-CoV-2 Mpro FRET-based enzyme assay. Format: biochemical. The note with it: 5 nM Mpro, 25 μM FRET substrate, 20 min preincubation at room temperature; mean n=2; read-out: SARS-CoV-2 Mpro enzyme pKi assay pKi (converted).

This is an account of results in patent publication US20240217930A1 (priority 2021, published 2024).

Consider `CC(C)C(=O)N[C@H](C(=O)N1C[C@H]2[C@@H]([C@H]1C(=O)NC(CC1CC1)C(=O)C(N)=O)C2(C)C)C(C)(C)C` (stereo partly drawn) [Example 1, (1 R,2S,5S)—N-(4-Amino-1-cyclopropyl-3,4-dioxobutan-2-yl)-3-((S)-2-isobutyramido-3,3-dimethylbutanoyl)-6,6-dimethyl-3-azabicyclo[3.1.0]hexane-2-carboxamide], for which the Ki is 15.8 nM.

As for `CC(C)[C@H](NC(=O)C1CC1)C(=O)N1C[C@H]2[C@@H]([C@H]1C(=O)NC(CC1CC1)C(=O)C(N)=O)C2(C)C` (stereo partly drawn) [Example 2, (1 R,2S,5S)—N-[3-Amino-1-(cyclopropylmethyl)-2,3-dioxo-propyl]-3-[(2S)-2-(cyclopropanecarbonylamino)-3-methylbutanoyl]-6,6-dimethyl-3-azabicyclo[3.1.0]hexane-2-carboxamide], the Ki was 50.1 nM.

On to `CC[C@@H](C)[C@H](NC(=O)C(C)C)C(=O)N1C[C@H]2[C@@H]([C@H]1C(=O)NC(CC1CC1)C(=O)C(N)=O)C2(C)C` (stereo partly drawn) [Example 3, (1R,2S,5S)—N-(4-Amino-1-cyclopropyl-3,4-dioxobutan-2-yl)-3-(isobutyryl-L-alloisoleucyl)-6,6-dimethyl-3-azabicyclo[3.1.0]hexane-2-carboxamide], for which the Ki was 79.4 nM.

With `C=CC(=O)N[C@H](C(=O)N1C[C@H]2[C@@H]([C@H]1C(=O)NC(CC1CC1)C(=O)C(N)=O)C2(C)C)C(C)C` (stereo partly drawn) [Example 4, (1 R,2S,5S)-3-(Acryloyl-L-valyl)-N-(4-amino-1-cyclopropyl-3,4-dioxobutan-2-yl)-6,6-dimethyl-3-azabicyclo[3.1.0]hexane-2-carboxamide], the Ki was 50.1 nM.

For the compound `CC(C)C(=O)N[C@H](C(=O)N1C[C@H]2[C@@H]([C@H]1C(=O)NC(C[C@H]1C[C@@H]1C)C(=O)C(N)=O)C2(C)C)C(C)C` (stereo partly drawn) [Example 5, (1 R,2S,5S)—N-(4-Amino-1-((1 R,2S)-2-methylcyclopropyl)-3,4-dioxobutan-2-yl)-3-(isobutyryl-L-valyl)-6,6-dimethyl-3-azabicyclo[3.1.0]hexane-2-carboxamide], the Ki is 158 nM.

Regarding `CC(C)C(=O)N[C@@H](CC1CC1)C(=O)N1C[C@H]2[C@@H]([C@H]1C(=O)NC(CC1CC1)C(=O)C(N)=O)C2(C)C` (stereo partly drawn) [Example 6, (1 R,2S,5S)—N-(4-Amino-1-cyclopropyl-3,4-dioxobutan-2-yl)-3-((S)-3-cyclopropyl-2-isobutyramidopropanoyl)-6,6-dimethyl-3-azabicyclo[3.1.0]hexane-2-carboxamide], the Ki is 200 nM.

Turning to `CC(C)C(=O)N[C@H](C(=O)N1C[C@H]2[C@@H]([C@H]1C(=O)NC(CC1CC1)C(=O)C(N)=O)C2(C)C)C(C)C` (stereo partly drawn) [Example 7, (1 R,2S,5S)—N-(4-Amino-1-cyclopropyl-3,4-dioxobutan-2-yl)-3-(isobutyryl-L-valyl)-6,6-dimethyl-3-azabicyclo[3.1.0]hexane-2-carboxamide], the Ki was 200 nM.

With `CC1(C)[C@@H]2[C@@H](C(=O)NC(CC3CC3)C(=O)C(N)=O)N(C(=O)[C@@H](NC(=O)C3CC3)C3CC3)C[C@@H]21` (stereo partly drawn) [Example 9, (1 R,2S,5S)—N-(4-Amino-1-cyclopropyl-3,4-dioxobutan-2-yl)-3-((S)-2-(cyclopropanecarboxamido)-2-cyclopropylacetyl)-6,6-dimethyl-3-azabicyclo[3.1.0]hexane-2-carboxamide], the Ki was 316 nM.

Turning to `CC(C)C(=O)N[C@H](C(=O)N1C[C@H]2[C@@H]([C@H]1C(=O)NC(CC1CC1)C(=O)C(N)=O)C2(C)C)C1CC1` (stereo partly drawn) [Example 10, (1 R,2S,5S)—N-(4-Amino-1-cyclopropyl-3,4-dioxobutan-2-yl)-3-((S)-2-cyclopropyl-2-isobutyramidoacetyl)-6,6-dimethyl-3-azabicyclo[3.1.0]hexane-2-carboxamide], the Ki was 316 nM.

In the case of `CC(C)C(=O)NC(C(=O)N1C[C@H]2[C@@H]([C@H]1C(=O)NC(CC1CC1)C(=O)C(N)=O)C2(C)C)C1COC1` (stereo partly drawn) [Example 13, (1 R,2S,5S)—N-(4-Amino-1-cyclopropyl-3,4-dioxobutan-2-yl)-3-(2-isobutyramido-2-(oxetan-3-yl)acetyl)-6,6-dimethyl-3-azabicyclo[3.1.0]hexane-2-carboxamide], the Ki is 316 nM.

Regarding `CC(C)(C)[C@H](NC(=O)C1CC1)C(=O)N1C[C@H]2[C@@H]([C@H]1C(=O)NC(CC1CC1)C(=O)C(N)=O)C2(C)C` (stereo partly drawn) [Example 14, (1 R,2S,5S)—N-(4-Amino-1-cyclopropyl-3,4-dioxobutan-2-yl)-3-((S)-2-(cyclopropanecarboxamido)-3,3-dimethylbutanoyl)-6,6-dimethyl-3-azabicyclo[3.1.0]hexane-2-carboxamide], the Ki was 15.8 nM.

`C=CC(=O)N[C@H](C(=O)N1C[C@H]2[C@@H]([C@H]1C(=O)NC(CC1CC1)C(=O)C(N)=O)C2(C)C)C(C)(C)C` (stereo partly drawn) [Example 15, (1 R,2S,5S)-3-((S)-2-Acrylamido-3,3-dimethylbutanoyl)-N-(4-amino-1-cyclopropyl-3,4-dioxobutan-2-yl)-6,6-dimethyl-3-azabicyclo[3.1.0]hexane-2-carboxamide]: the Ki was 3.98 nM.

As to `CC(C)(C)[C@H](NC(=O)C1CC1)C(=O)N1C[C@H]2[C@@H]([C@H]1C(=O)NC(CC1CC1)C(=O)C(=O)NCc1ccccc1)C2(C)C` (stereo partly drawn) [Example 18, (1 R,2S,5S)—N-(4-(Benzylamino)-1-cyclopropyl-3,4-dioxobutan-2-yl)-3-((S)-2-(cyclopropanecarboxamido)-3,3-dimethylbutanoyl)-6,6-dimethyl-3-azabicyclo[3.1.0]hexane-2-carboxamide], the Ki is 50.1 nM.

Consider `CC(C)(C)[C@H](NC(=O)C1CC1)C(=O)N1C[C@H]2[C@@H]([C@H]1C(=O)NC(CC1CC1)C(=O)C(=O)NC1CC1)C2(C)C` (stereo partly drawn) [Example 19, (1 R,2S,5S)-3-((S)-2-(Cyclopropanecarboxamido)-3,3-dimethylbutanoyl)-N-(1-cyclopropyl-4-(cyclopropylamino)-3,4-dioxobutan-2-yl)-6,6-dimethyl-3-azabicyclo[3.1.0]hexane-2-carboxamide], for which the Ki is 50.1 nM.

For the compound `CNC(=O)C(=O)C(CC1CC1)NC(=O)[C@@H]1[C@@H]2[C@H](CN1C(=O)[C@@H](NC(=O)C(C)C)C(C)(C)C)C2(C)C` (stereo partly drawn) [Example 22, (1 R,2S,5S)—N-(1-Cyclopropyl-4-(methylamino)-3,4-dioxobutan-2-yl)-3-((S)-2-isobutyramido-3,3-dimethylbutanoyl)-6,6-dimethyl-3-azabicyclo[3.1.0]hexane-2-carboxamide], the Ki is 15.8 nM.

On to `CC(C)C(=O)N[C@H](C(=O)N1C[C@H]2[C@@H]([C@H]1C(=O)NC(CC1CC1)C(=O)C(=O)N(C)C)C2(C)C)C(C)(C)C` (stereo partly drawn) [Example 23, (1 R,2S,5S)—N-(1-Cyclopropyl-4-(dimethylamino)-3,4-dioxobutan-2-yl)-3-((S)-2-isobutyramido-3,3-dimethylbutanoyl)-6,6-dimethyl-3-azabicyclo[3.1.0]hexane-2-carboxamide], for which the Ki is > 5010 nM.

In the case of `CC(C)C(=O)N[C@H](C(=O)N1C[C@H]2[C@@H]([C@H]1C(=O)NC(CC1CC1)C(=O)C(N)=O)C2(C)C)C1CCC1` (stereo partly drawn) [Example 25, (1 R,2S,5S)—N-(4-Amino-1-cyclopropyl-3,4-dioxobutan-2-yl)-3-((S)-2-cyclobutyl-2-isobutyramidoacetyl)-6,6-dimethyl-3-azabicyclo[3.1.0]hexane-2-carboxamide], the Ki is 251 nM.

For `CC(C)C(=O)N[C@H](C(=O)N1C[C@H]2[C@@H]([C@H]1C(=O)NC(C#N)CC1CC1)C2(C)C)C(C)(C)C` (stereo partly drawn) [Example 27, (1 R,2S,5S)—N-(1-Cyano-2-cyclopropylethyl)-3-((S)-2-isobutyramido-3,3-dimethylbutanoyl)-6,6-dimethyl-3-azabicyclo[3.1.0]hexane-2-carboxamide], the Ki was > 5010 nM.

Turning to `CC(C)[C@H](NC(=O)C1CC1)C(=O)N1C[C@H]2[C@@H]([C@H]1C(=O)NC(CC1CC1)C(=O)C(=O)NC1CC1)C2(C)C` (stereo partly drawn) [Example 29, (1 R,2S,5S)-3-((Cyclopropanecarbonyl)-L-valyl)-N-(1-cyclopropyl-4-(cyclopropylamino)-3,4-dioxobutan-2-yl)-6,6-dimethyl-3-azabicyclo[3.1.0]hexane-2-carboxamide], the Ki was 251 nM.

Turning to `CC(C)C(=O)NC(C(=O)N1C[C@H]2[C@@H]([C@H]1C(=O)NC(CC1CC1)C(=O)C(N)=O)C2(C)C)C1CCOC1` (stereo partly drawn) [Example 30, (1 R,2S,5S)—N-(4-Amino-1-cyclopropyl-3,4-dioxobutan-2-yl)-3-(2-isobutyramido-2-(tetrahydrofuran-3-yl)acetyl)-6,6-dimethyl-3-azabicyclo[3.1.0]hexane-2-carboxamide], the Ki was 158 nM.

For `CC(C)C(=O)N[C@H](C(=O)N1C[C@H]2[C@@H]([C@H]1C(=O)NC(CC1CC1)C(=O)C(=O)N[C@H]1CC1(C)C)C2(C)C)C(C)(C)C` (stereo partly drawn) [Example 31, (1 R,2S,5S)—N-(1-Cyclopropyl-4-(((S)-2,2-dimethylcyclopropyl)amino)-3,4-dioxobutan-2-yl)-3-((S)-2-isobutyramido-3,3-dimethylbutanoyl)-6,6-dimethyl-3-azabicyclo[3.1.0]hexane-2-carboxamide], the Ki was 100 nM.

Take `CC(C)(C)[C@H](NC(=O)C(C(F)(F)F)C(F)(F)F)C(=O)N1C[C@H]2[C@@H]([C@H]1C(=O)NC(CC1CC1)C(=O)C(N)=O)C2(C)C` (stereo partly drawn) [Example 33, (1 R,2S,5S)—N-(4-Amino-1-cyclopropyl-3,4-dioxobutan-2-yl)-3-((S)-3,3-dimethyl-2-(3,3,3-trifluoro-2-(trifluoromethyl)propanamido)butanoyl)-6,6-dimethyl-3-azabicyclo[3.1.0]hexane-2-carboxamide]: the Ki was 158 nM.
